Assay results from patent US7008649B2, “Cancer treatment composition and method using natural plant essential oils with signal transduction modulators” (Ecosmart Techonlogies, Inc., priority 1998, dated 2006).

Experiments:
Format in all cases: cell-based, human
[1] = test system: MCF-7 cells; test: Plant essential oil compounds against E2-induced cell growth, viable cell count (trypan blue, haemocytometer); conditions: 10 nM estrogen, 5 days of treatment; for protection against E2-induced abnormal cell growth: 1 ug/ml
Description: Various concentrations of plant essential oil compounds were tested against E2-induced cell growth to determine the lowest concentrations that antagonize the E2-induced cell growth. MCF-7 cells were cultured in growth medium supplemented with 10% fetal bovine serum (FBS). At 85% confluence, cells were sub-cultured in 6 well petri-dishes and supplemented with 5% FBS serum stripped medium, phenol red free for 24 hours prior to the treatment of different concentrations of the test chemicals. After 5 days of treatment cells were trypsinized and collected using an Eppendorf microcentrifuge. The cell pellets were resuspended in 1% trypan blue. Three aliquots (10 ul each) of the viable cell suspension was counted using a haemocytometer assay. Each sample was then counted three times and to obtain an average count. The compounds were tested in the presence of 10 nM estrogen (=2.7 ng estrogen/ml). Two wells per test concentration were used. This experiment was repeated two times. A control sample-received solvent only at <0.1% ethanol.

[2] = test system: MCF-7 cells; test: Mixed exposure of plant essential oil compounds and forskolin (FK) on E2-induced breast cancer cell growth (FIG. 3); conditions: mixed exposure with forskolin (FK), 10 nM estrogen
Description: (§1) MCF-7 cells were cultured in growth medium supplemented with 10% fetal bovine serum (FBS). At 85% confluence, cells were sub-cultured in 6 well petri-dishes medium supplemented with 5% FBS serum stripped medium, phenol red free for 24 hours prior to the treatment of different concentrations of the test chemicals. Cells were either counted (5 days after treatment) or used to determine cell proliferation (24 hr after treatment) using ^3H-thymidine incorporation. To count the cell, cells were trypsinized, and collected using Eppendorf microcentrifuge. The cell pellets were resuspended in 1% trypan blue and three aliquots (10 ul each) of the viable cell suspension was counted using a haemocytometer assay. Each sample was then counted three times to obtain an average count. For thymidine incoroporation, 24 hr after cell treated with test mixture, cells were incubated with 1 uCi ^3H-thymidine. After 2 hr, the medium was withdrawn and the cells were washed with thymidine-free medium and 10% TCA prior to radioactive count. Plant essential oil compounds were tested in the presence of 10 nM estrogen (=2.7 ng estrogen/ml) using three wells per test concentration. This experiment was repeated two times. A control sample received solvent only at <0.1% ethanol. The data supports the involvement of cellular signaling proteins, particularly cAMP/PKA cascade in the E2-induced cell proliferation in human breast cancer cells as judged by the antiestrogenic activity of FK. However, different methods are required to evaluate antiestrogenic activity.

[3] = test system: MCF-7 cells; test: Mixed exposure of okadaic acid (OA) and plant essential oil compounds, 3H-thymidine incorporation (FIG. 5); conditions: 10 ug/ml plant essential oil compound + 1 nM okadaic acid, 24 hr, with or without 10 nM E2
Description: MCF-7 cells were cultured in growth medium supplemented with 10% fetal bovine serum (FBS). At 85% confluence, cells were sub-cultured in 6 well petri-dishes medium supplemented with 5% FBS serum stripped medium, phenol red free for 24 hours prior to the treatment of 10 ug/ml of each plant essential oil compound and 1 nM okadiac acid. After 24 hr treatment, cells were used to determine cell proliferation using ^3H-thymidine incorporation. Two hrs after cell incubation with 1 uCi ^3H-thymidine, the medium was withdrawn and the cells were washed with thymidine-free medium and 10% TCA prior to radioactive count. These test chemicals were tested in the presence of 10 nM estrogen (=2.7 ng estrogen/ml). Three wells per test concentration were used. This experiment was repeated two times. A control sample received solvent only at <0.1% ethanol.

[4] = test system: MCF-7 cells; test: Effect of geldanamycin (GM) on antiestrogenic activity of plant essential oil compounds against E2-induced cell growth (FIG. 4); conditions: mixed exposure with geldanamycin (GM), 10 nM estrogen
Description: as §1, with “The data supports the involvement of cellular signaling proteins, particularly cAMP/PKA cascade in the E2-induced cell proliferation in human breast cancer cells as judged by the antiestrogenic activity of FK. However, different methods are required to evaluate antiestrogenic activity.” left out

SMILES | protection against the E2-induced cell proliferation ([1]; 5 ug/ml) [%] | synergism by FK of the antiestrogenic activity of the plant essential oil compound [2] | synergism by OA of the antiestrogenic activity of the plant essential oil compound [3] | protection against E2-induced abnormal cell growth [1] [%] | protection against the E2-induced abnormal cell growth ([1]; concentration not given) | protection against the E2-induced abnormal cell growth ([1]; 10 μg/ml) | synergism by GM of the antiestrogenic activity against E2 induced cell growth [4]
Cc1ccc(C(C)C)c(O)c1 [thymol] | 40 | not | only in the absence of E2 | – | – | – | –
CC=Cc1ccc(O)c(OC)c1 [isoeugenol] | – | not | – | 25 | approximately 75% | – | –
O=C/C=C/c1ccccc1 [Cinnamic aldehyde] | – | synergizes | – | – | – | approximately 75% | –
C=CCc1ccc(O)c(OC)c1 [eugenol] | – | synergizes | regardless of the absence or presence of E2 | 35 | – | – | synergizes
